Reference: article PMC10379611 (International Journal of Molecular Sciences, 2023)

Columns and labels:
CNT1 = biological target: T1, CNT1 (Homo sapiens, UniProt O00337); assay: CNT1-mediated uridine uptake in CNT1-MDCKII cells; format: cell-based; settings: for IC50: MDCKII cells, 1 µM uridine
T1 construct: expressed in transfected cells; host or cells: MDCKII (lentiviral transduction)
T1 sequence (O00337 1-649): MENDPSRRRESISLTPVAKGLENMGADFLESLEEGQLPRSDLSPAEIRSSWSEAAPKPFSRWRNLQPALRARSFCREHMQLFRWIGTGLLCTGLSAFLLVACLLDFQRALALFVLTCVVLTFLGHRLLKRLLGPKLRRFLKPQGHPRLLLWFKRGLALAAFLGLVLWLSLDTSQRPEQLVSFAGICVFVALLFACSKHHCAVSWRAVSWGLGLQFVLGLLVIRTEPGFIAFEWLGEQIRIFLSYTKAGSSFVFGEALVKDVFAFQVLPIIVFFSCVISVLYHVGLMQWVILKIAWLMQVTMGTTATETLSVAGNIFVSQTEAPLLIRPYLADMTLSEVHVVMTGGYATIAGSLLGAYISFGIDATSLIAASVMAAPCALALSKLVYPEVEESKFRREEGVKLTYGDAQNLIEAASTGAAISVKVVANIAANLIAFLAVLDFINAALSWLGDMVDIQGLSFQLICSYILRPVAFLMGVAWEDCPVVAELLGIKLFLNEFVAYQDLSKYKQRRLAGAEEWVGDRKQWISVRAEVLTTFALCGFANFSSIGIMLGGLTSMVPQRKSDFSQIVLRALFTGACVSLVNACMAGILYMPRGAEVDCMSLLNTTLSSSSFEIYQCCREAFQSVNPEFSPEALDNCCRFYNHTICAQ
Procedure: ENT and CNT transporter interactions were investigated in transporter-overexpressing cell lines. Madin-Darby Canine Kidney II (MDCKII) cell lines overexpressing the human uptake transporters CNT1, CNT2, ENT1, and ENT2 were generated via lentiviral transduction. Cell cultures were maintained in Dulbecco’s modified Eagle’s medium (DMEM) and 4500 mg/L of glucose supplemented with GlutaMax^TM, 10% v/v fetal bovine serum (FBS), 100 units/mL penicillin, and 100 µg/mL streptomycin (all from Gibco/ThermoFisher, Waltham, MA, USA) at 37 °C in 5% CO2 at 95% humidity. For uptake inhibition assays, transporter-expressing cells and mock-transduced control cells were seeded on 96-well tissue culture plates at a density of 1 × 10^5 cells/well. Twenty-four hours after seeding, cells were rinsed twice with Krebs-Henseleit buffer (KH buffer, pH 7.4) and then preincubated for 30 min with solutions containing serial dilutions of the test compounds in KH at room temperature. Following preincubation, the solutions were removed, the cells were rinsed twice with KH buffer, and coincubation was started with a suitable radiolabeled substrate and the diluted series of test compounds. Assay conditions were as follows: 1 µM uridine (traced with 0.1 µCi ^3H-Uridine/well), 30 s (CNT1), and 1 min (CNT2, ENT1) incubations; 1 µM adenosine (traced with 0.1 µCi ^3H-Adenosine/well) and 2 min (ENT2) incubation. All experiments were conducted at room temperature. […] Uptake was terminated by rinsing twice with ice-cold KH buffer, and cells were lysed with 0.1 M NaOH. To determine the amounts of accumulated radiolabeled substrates, cell lysates mixed with a liquid scintillation cocktail were measured with a MicroBeta2 microplate counter (PerkinElmer, Singapore).
(§1) Transporter-specific accumulation of the probe substrate was calculated using the following formula: ACCSpec = ACCTRP − ACCMock, where ACCTRP is the accumulation of the probe in transporter-expressing cells and ACCMock is the accumulation of the probe in control cells. Relative transporter-specific accumulation values were calculated as percentages of the control value (with vehicle only).

CNT2 = biological target: T2, CNT2 (Homo sapiens, UniProt O43868); assay: CNT2-mediated uridine uptake in CNT2-MDCKII cells; format: cell-based
T2 construct: expressed in transfected cells; host or cells: MDCKII (lentiviral transduction)
T2 sequence (O43868 1-658): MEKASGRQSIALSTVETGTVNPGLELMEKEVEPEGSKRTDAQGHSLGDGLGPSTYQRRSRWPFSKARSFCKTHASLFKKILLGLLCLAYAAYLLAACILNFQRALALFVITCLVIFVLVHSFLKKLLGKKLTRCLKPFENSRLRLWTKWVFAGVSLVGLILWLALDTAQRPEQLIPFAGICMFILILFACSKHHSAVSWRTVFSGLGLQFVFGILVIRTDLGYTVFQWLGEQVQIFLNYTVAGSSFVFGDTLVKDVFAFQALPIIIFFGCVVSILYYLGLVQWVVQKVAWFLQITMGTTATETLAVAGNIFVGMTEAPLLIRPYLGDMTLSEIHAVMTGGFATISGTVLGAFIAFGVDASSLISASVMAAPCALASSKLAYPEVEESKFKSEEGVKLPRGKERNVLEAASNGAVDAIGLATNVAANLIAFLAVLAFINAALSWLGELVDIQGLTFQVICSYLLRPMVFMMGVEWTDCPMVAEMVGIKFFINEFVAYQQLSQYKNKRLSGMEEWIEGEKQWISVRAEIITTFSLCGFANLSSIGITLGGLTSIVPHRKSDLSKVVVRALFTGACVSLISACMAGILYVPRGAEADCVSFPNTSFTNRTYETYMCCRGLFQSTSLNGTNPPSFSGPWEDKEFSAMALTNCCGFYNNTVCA
Procedure: ENT and CNT transporter interactions were investigated in transporter-overexpressing cell lines. Madin-Darby Canine Kidney II (MDCKII) cell lines overexpressing the human uptake transporters CNT1, CNT2, ENT1, and ENT2 were generated via lentiviral transduction. Cell cultures were maintained in Dulbecco’s modified Eagle’s medium (DMEM) and 4500 mg/L of glucose supplemented with GlutaMax^TM, 10% v/v fetal bovine serum (FBS), 100 units/mL penicillin, and 100 µg/mL streptomycin (all from Gibco/ThermoFisher, Waltham, MA, USA) at 37 °C in 5% CO2 at 95% humidity. For uptake inhibition assays, transporter-expressing cells and mock-transduced control cells were seeded on 96-well tissue culture plates at a density of 1 × 10^5 cells/well. Twenty-four hours after seeding, cells were rinsed twice with Krebs-Henseleit buffer (KH buffer, pH 7.4) and then preincubated for 30 min with solutions containing serial dilutions of the test compounds in KH at room temperature. Following preincubation, the solutions were removed, the cells were rinsed twice with KH buffer, and coincubation was started with a suitable radiolabeled substrate and the diluted series of test compounds. Assay conditions were as follows: 1 µM uridine (traced with 0.1 µCi ^3H-Uridine/well), 30 s (CNT1), and 1 min (CNT2, ENT1) incubations; 1 µM adenosine (traced with 0.1 µCi ^3H-Adenosine/well) and 2 min (ENT2) incubation. All experiments were conducted at room temperature. […] To determine the amounts of accumulated radiolabeled substrates, cell lysates mixed with a liquid scintillation cocktail were measured with a MicroBeta2 microplate counter (PerkinElmer, Singapore).
as §1

| SMILES | IC50 (CNT1) | inhibition of CNT1-mediated uridine uptake (CNT1; at 200 μM) | inhibition of CNT2-mediated uridine uptake (CNT2) | IC50 (CNT2; 1 µM uridine) | inhibition at 200 µM (CNT1; read-out: inhibition of CNT1-mediated uridine uptake) |
| --- | --- | --- | --- | --- | --- |
| O=c1nc(NO)ccn1[C@@H]1O[C@H](CO)[C@@H](O)[C@H]1O [EIDD-1931] | 18.8 µM | approximately 80% | strong inhibition | 10.2 µM |  |
| CC(C)C(=O)OC[C@H]1O[C@@H](n2ccc(NO)nc2=O)[C@H](O)[C@@H]1O [EIDD-2801, Molnupiravir] | 84.9 µM |  | less potently inhibited |  | ~80% |
